{"source": "paper PMC6396489", "about": "(Cell Communication and Signaling : CCS, 2019)", "key": {"[1]": {"system": "T1, Shp1 cSH2 domain", "T1 construct": "The purified C-terminal SH2 domain (cSH2) was selected for these studies; made in house", "assay": "NMR 1H-15N HSQC titration of cSH2 domain", "assay_type": "binding, human", "details": "fast exchange regime, cSH2:GroPIns4P up to 1:5", "method": "A suite of triple resonance experiments (Additional file 1 Table S1) was used for assignment of the ^1H, ^15N and ^13C backbone resonances of the Shp1 cSH2 domain. All experiments were acquired on a 700 MHz Bruker Avance instrument equipped with a TCI cryoprobe. Assignment of the cSH2 domain backbone resonances was complete with the exception of the resonances of S109 and G175. ^15N cSH2 (200 μM) was titrated with GroPIns4P, and a series of ^1H–^15N-HSQC spectra were recorded at different cSH2:GroPIns4P ratios up to a 1:5 ratio. […] The ^1HN and ^15N chemical shift perturbations were estimated by using the following equation [23]: Δδ=ΔHN^2+ΔN/5^2/2^1/2\nWhere ΔHN and ΔN are the differences between the ^1H and ^15N chemical shifts of free cSH2 and cSH2 in the presence of GroPIns4P, respectively."}, "[2]": {"system": "Src", "assay": "Western blotting of Src and PLCγ phosphorylation in NIH3T3 cells", "assay_type": "cell-based", "method": "NIH3T3 and Raw 264.7 cells were cultured in DMEM supplemented with 2 mM L-glutamine, 50 U/mL penicillin, […] streptomycin, and 10% CS or heat-inactivated FBS (30 min at 55 °C), respectively. NIH3T3 cells were transfected with different plasmids using the Lipofectamine LTX/plus reagent according to the manufacturer’s instructions. For immunofluorescence experiments, NIH3T3 cells were seeded onto glass coverslips in 24-well plates at a concentration suitable for 70% confluence without transfection or 50% confluence in the case of Lipofectamine-based cell transfection. In the latter, approximately 24 h after seeding, NIH3T3 cells were transiently transfected with different plasmids with the Lipofectamine LTX/plus reagent following the manufacturer’s instructions. Before treatments, NIH3T3 cells were serum-starved in DMEM with 2 mM glutamine, 50 U/mL penicillin and streptomycin for 16–20 h. The cells were then treated with different stimuli and/or inhibitors, as indicated in the text and/or Figure legends. Addition of exogenous GroPIns4P was at 50 μM (unless otherwise indicated), a concentration eliciting an intracellular concentration of about 1.5 μM, as calculated from the Nernst equation (with T = 300 K, z = − 3, and Veq = − 30 mV, an average value for cultured, non-excitable cells).\nNIH3T3 cells were washed with ice-cold PBS and lysed on ice in buffer containing 20 mM Tris-HCl, pH 8.0, 150 mM NaCl, 1% Triton-X100, 5 mM Na3VO4, 30 mM β-glycerophosphate and 10 mM NaF supplemented with the protease inhibitor cocktail and processed for SDS-PAGE. Westen blotting was performed with the relevant antibodies. For immunoprecipitation experiments, 2 μg of an anti-Shp1 antibody or 5 μg of an anti-Src antibody were added to 1 mg of NIH3T3 cell lysates at 4 °C and incubated overnight. The samples were then incubated with A or G protein agarose beads for 1 h at 4 °C. Western blotting was performed from the washed and denatured complexes."}, "[3]": {"molecular_target": "T2, Shp1 (Homo sapiens, UniProt P29350)", "T2 construct": "the C-terminal truncated form of human Shp1 cDNA (His-Shp1; amino acids 1–529); made in house; host or cells: E. coli BL21(DE3)", "T2 sequence (P29350 1-529 isoform P29350-3)": "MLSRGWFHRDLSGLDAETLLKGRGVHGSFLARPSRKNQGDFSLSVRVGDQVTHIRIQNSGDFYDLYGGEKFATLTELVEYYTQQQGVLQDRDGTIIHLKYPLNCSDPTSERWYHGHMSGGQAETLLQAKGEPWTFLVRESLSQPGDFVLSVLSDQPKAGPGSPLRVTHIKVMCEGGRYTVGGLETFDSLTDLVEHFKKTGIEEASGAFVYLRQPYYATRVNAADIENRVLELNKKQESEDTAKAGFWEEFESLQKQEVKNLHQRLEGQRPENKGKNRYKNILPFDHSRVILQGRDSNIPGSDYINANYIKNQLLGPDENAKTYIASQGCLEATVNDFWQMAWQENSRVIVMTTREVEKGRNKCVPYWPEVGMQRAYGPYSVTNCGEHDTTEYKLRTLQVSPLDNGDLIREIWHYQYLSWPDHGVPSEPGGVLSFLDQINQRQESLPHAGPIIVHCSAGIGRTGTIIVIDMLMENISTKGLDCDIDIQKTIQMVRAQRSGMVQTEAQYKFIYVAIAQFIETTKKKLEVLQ", "assay": "In-vitro dephosphorylation of Src by recombinant Shp1", "assay_type": "biochemical", "details": "50 μM, 10 min at 37 °C", "method": "The immunoprecipitates were washed three times with lysis buffer, three times with lysis buffer without phosphatase inhibitors, and twice with phosphatase buffer (100 mM Na-Hepes, pH 7.4, 150 mM NaCl, 1 mM EDTA, and 10 mM DTT). The immunoprecipitates were then split equally into different tubes for treatment with Shp1 or buffer only. The treatment consisted of the addition of 2 μg of Shp1 to the immunoprecipitates in the absence or presence of 50 μM GroPIns4P and an incubation at 37 °C for different times. The reactions were terminated by the addition of concentrated SDS-sample buffer."}, "[4]": {"system": "T3, Shp1 and Src", "T3 construct": "expressed in transfected cells; host or cells: NIH3T3", "assay": "Acceptor photobleaching FRET of Shp1-CFP and Src-YFP", "assay_type": "cell-based", "details": "50 μM for 5 min", "method": "Acceptor photobleaching (apFRET) experiments were carried out with Leica SP5 confocal microscope, as follows: for CFP (donor) fluorescence detection, excitation at 458 nm and fluorescence detected at 470–490 nm. For YFP bleaching, a 514 nm argon laser was used. apFRET was measured by increase in CFP fluorescence intensity before (IDA) and after (ID) YFP photobleaching. To ensure reproducibility and reliability of CFP fluorescence measurements in the absence of acceptor (ID), YFP was photobleached to 10% of its initial fluorescence. The FRET efficiency was calculated as E = (ID − IDA)/ ID ."}, "[5]": {"details": "NIH3T3 overexpressing Shp1-C455S, 50 μM"}}}
{"compound": "O=P(O)(O)OC1C(O)C(O)C(OP(=O)(O)OCC(O)CO)C(O)C1O", "note": "(stereo not drawn) [GroPIns4P, glycerophosphoinositol 4-phosphate]", "values": [{"measurement": "exchange rate between bound and free cSH2", "setting": "[1]", "value": "higher than 2 × 10^3 s^-1"}, {"measurement": "phosphorylation of PLCγ on Tyr783", "setting": "[2]; NIH3T3, 50 μM", "value": "induced an increase in phosphorylation"}, {"measurement": "Src activating Tyr418 phosphorylation", "setting": "[2]; NIH3T3, 50 μM for 2 to 5 min", "value": "increased"}, {"measurement": "Src inhibitory Tyr530 phosphorylation", "setting": "[2]; NIH3T3, 50 μM for 2 to 5 min", "value": "markedly decreased"}, {"measurement": "Src Tyr418 or PLCγ tyrosine phosphorylation", "setting": "[2]; [5]", "value": "no increase"}, {"measurement": "Src dephosphorylation (pTyr530)", "setting": "[2]; [5]", "value": "failed to induce Src dephosphorylation"}, {"measurement": "effect on Shp1 phosphatase activity against immunopurified Src (pTyr530)", "setting": "[3]", "value": "stimulated Shp1 activity and induced Src dephosphorylation"}, {"measurement": "FRET efficiency in hot spots", "setting": "[4]; lamellar regions", "value": "over 20%"}, {"measurement": "average FRET efficiency", "setting": "[4]; over the cells", "value": 9, "unit": "%"}]}
